Source: patent US9000002B2, “N1-substituted-5-fluoro-2-oxopyrimidinone-1(2H)-carboxamide derivatives” (Dow Agrosciences LLC, priority 2009, dated 2015)
Like-named read-outs stand apart in the source and are kept apart here.

Assays:
[1] = test system: Mycosphaerella graminicola; Anamorph: Septoria tritici; Bayer Code SEPTTR; test: Evaluation of fungicidal activity: leaf blotch of wheat (SEPTTR), wheat plants variety Yuma; format: in vivo; settings: Zymoseptoria tritici
Description: Evaluation of Fungicidal Activity: Leaf Blotch of Wheat (Mycosphaerella graminicola; Anamorph: Septoria tritici; Bayer Code […]) Wheat plants (variety Yuma) were grown from seed in a greenhouse in 50% mineral soil/50% soil-less Metro mix until the first leaf was fully emerged, with 7-10 seedlings per pot. These plants were inoculated with an aqueous spore suspension of Septoria tritici either prior to or after fungicide treatments. After inoculation the plants were kept in 100% relative humidity (one day in a dark dew chamber followed by two to three days in a lighted dew chamber) to permit spores to germinate and infect the leaf. The plants were then transferred to a greenhouse for disease to develop. The following table presents the activity of typical compounds of the present disclosure when evaluated in these experiments. The effectiveness of the test compounds in controlling disease was determined by assessing the severity of disease on treated plants, then converting the severity to percent control based on the level of disease on untreated, inoculated plants. • In each case of Table II the rating scale is as follows: […]

[2] = 24 h, One-Day Protectant (1DP), 100 ppm, wheat plants, percent control vs untreated inoculated plants, read-out: SEPTTR 100 PPM 1DP (% Disease Control rating)
[3] = 72 h, Three-Day Curative (3DC), 100 ppm, wheat plants, percent control vs untreated inoculated plants, read-out: SEPTTR 100 PPM 3DC (% Disease Control rating)

Row | Compound | melting point | pest or weed control at 100 ppm [1, 2] | pest or weed control at 100 ppm [1, 3] | pest or weed control at 100 ppm ([1]; 24 h, read-out: SEPTTR 100 PPM 1DP (% Disease Control rating)) | pest or weed control at 100 ppm ([1]; 72 h, read-out: SEPTTR 100 PPM 3DC (% Disease Control rating))
1 | Nc1nc(=O)n(C(=O)Nc2ccc3sccc3c2)cc1F [Compound 19] | 282 to 284 °C | 76 to 100% | 76 to 100% |  | 
2 | Nc1nc(=O)n(C(=O)Nc2ccsc2)cc1F [Compound 20] | 263 to 265 °C | 76 to 100% | 76 to 100% |  | 
3 | Nc1nc(=O)n(C(=O)Nc2ccc(F)cc2)cc1F [Compound 21] | 257 to 259 °C | 76 to 100% | 76 to 100% |  | 
4 | Nc1nc(=O)n(C(=O)NCc2ccccc2F)cc1F [Compound 22] | 260 to 262 °C | 76 to 100% | 76 to 100% |  | 
5 | CCCNC(=O)n1cc(F)c(N)nc1=O [Compound 23] | 290 to 293 °C | 76 to 100% | 76 to 100% |  | 
6 | CC(C)NC(=O)n1cc(F)c(N)nc1=O [Compound 24] | 291 to 294 °C | 76 to 100% | 76 to 100% |  | 
7 | CCOC(=O)CNC(=O)n1cc(F)c(N)nc1=O [Compound 25] | 220 to 224 °C | 76 to 100% | 76 to 100% |  | 
8 | CSCCNC(=O)n1cc(F)c(N)nc1=O [Compound 26] | 237 to 239 °C | 76 to 100% | 76 to 100% |  | 
9 | COCCCNC(=O)n1cc(F)c(N)nc1=O [Compound 27] | 295 to 298 °C | 76 to 100% | 76 to 100% |  | 
10 | O=C(Nc1ccccc1)n1cc(F)c(NCc2ccccc2F)nc1=O [Compound 28, 5-fluoro-4-(2-fluorobenzylamino)-2-oxo-N-phenylpyrimidine-1(2H)-carboxamide] | 154 to 157 °C |  |  | 0 to 25% | 26 to 50%
11 | O=C(Nc1ccc(F)cc1F)n1cc(F)c(NCc2ccccc2F)nc1=O [Compound 29] | 150 to 153 °C | 0 to 25% | 26 to 50% |  | 
12 | Cc1ccc(NC(=O)n2cc(F)c(NCc3ccccc3F)nc2=O)cc1 [Compound 30] | 158 to 162 °C | 0 to 25% | 26 to 50% |  | 
13 | O=C(Nc1cccc(Cl)c1)n1cc(F)c(NCc2ccccc2F)nc1=O [Compound 31] | 158 to 160 °C | 0 to 25% | 0 to 25% |  | 
14 | CCCNC(=O)n1cc(F)c(NCc2ccccc2F)nc1=O [Compound 32] | 113 to 116 °C | 26 to 50% | 51 to 75% |  | 
15 | CCN(CC)C(=S)n1cc(F)c(/N=C/N(C)C)nc1=O [Compound 33, (E)-4-((dimethylamino)methyleneamino)-N,N-diethyl-5-fluoro-2-oxopyrimidine-1(2H)-carbothioamide] | 118 to 123 °C | 0 to 25% | 26 to 50% |  | 
16 | CN(C(=S)n1cc(F)c(N)nc1=O)c1ccccc1 [Compound 34, 4-amino-5-fluoro-N-methyl-2-oxo-N-phenylpyrimidine-1(2H)-carbothioamide] | 192 to 196 °C | 76 to 100% | 76 to 100% |  | 
17 | CN(C(=S)n1cc(F)c(N)nc1=O)c1cccc(C(F)(F)F)c1 [Compound 35] | 126 to 131 °C | 76 to 100% | 76 to 100% |  | 
18 | CN(C(=S)n1cc(F)c(N)nc1=O)c1cc(Cl)cc(Cl)c1 [Compound 36] | 200 to 203 °C | 76 to 100% | 76 to 100% |  | 

Row | Compound | melting point | pest or weed control at 100 ppm [1, 2] | pest or weed control at 100 ppm [1, 3] | pest or weed control at 100 ppm ([1]; 24 h, read-out: SEPTTR 100 PPM 1DP (% Disease Control rating)) | pest or weed control at 100 ppm ([1]; 72 h, read-out: SEPTTR 100 PPM 3DC (% Disease Control rating))
19 | CCN(C(=S)n1cc(F)c(N)nc1=O)c1ccccc1 [Compound 37] | 223 to 226 °C | 76 to 100% | 76 to 100% |  | 
20 | CCNC(=O)n1cc(F)c(NC(C)=O)nc1=O [Compound 38, 4-acetamido-N-ethyl-5-fluoro-2-oxopyrimidine-1(2H)-carboxamide] | 233 to 235 °C | 76 to 100% | 76 to 100% |  | 
21 | CCCNC(=O)n1cc(F)c(NC(C)=O)nc1=O [Compound 39] | 233 to 235 °C | 76 to 100% | 76 to 100% |  | 
22 | CCCNC(=O)n1cc(F)c(NC(=O)c2ccccc2)nc1=O [Compound 40] | 258 to 260 °C | 76 to 100% | 76 to 100% |  | 
23 | CCCNC(=O)n1cc(F)c(NC(=O)C(C)C)nc1=O [Compound 41] | 226 to 228 °C | 76 to 100% | 76 to 100% |  | 
24 | CCCNC(=O)n1cc(F)c(NC(=O)c2ccccc2Cl)nc1=O [Compound 42] | 239 to 241 °C | 26 to 50% | 76 to 100% |  | 
25 | CCCNC(=O)n1cc(F)c(NC(=O)Cc2ccc(OC)cc2)nc1=O [Compound 43] | 227 to 229 °C | 76 to 100% | 76 to 100% |  | 
26 | CCNC(=O)n1cc(F)c(NC(=O)c2ccccc2)nc1=O [Compound 44] | 249 to 251 °C | 76 to 100% | 76 to 100% |  | 
27 | CCNC(=O)n1cc(F)c(NC(=O)C(C)C)nc1=O [Compound 45] | 226 to 228 °C | 76 to 100% | 76 to 100% |  | 
28 | CCNC(=O)n1cc(F)c(NC(=O)c2ccccc2Cl)nc1=O [Compound 46] | 239 to 241 °C | 76 to 100% | 51 to 75% |  | 
29 | CC(=O)Nc1nc(=O)n(C(=O)NCc2ccc(Cl)cc2)cc1F [Compound 47] | 170 to 172 °C | 76 to 100% | 76 to 100% |  | 
30 | O=C(Nc1nc(=O)n(C(=O)NCc2ccc(Cl)cc2)cc1F)c1ccccc1 [Compound 48] | 210 to 212 °C | 76 to 100% | 76 to 100% |  | 
31 | CCNC(=O)n1cc(F)c(NC(=O)NCc2ccccc2OC)nc1=O [Compound 49, N-ethyl-5-fluoro-4-(3-(2-methoxybenzyl)ureido)-2-oxopyrimidine-1(2H)-carboxamide] | 248 to 250 °C | 0 to 25% | 0 to 25% |  | 
32 | COc1ccccc1CNC(=O)Nc1nc(=O)n(C(=O)NC(C)C)cc1F [Compound 50] | 251 to 253 °C | 0 to 25% | 0 to 25% |  | 
33 | CCCNC(=O)n1cc(F)c(NC(=O)NCc2ccccc2OC)nc1=O [Compound 51] | 248 to 250 °C | 0 to 25% | 0 to 25% |  | 
34 | CCCCCNC(=O)n1cc(F)c(NC(=O)NCc2ccccc2OC)nc1=O [Compound 52] | 248 to 250 °C | 0 to 25% | 0 to 25% |  | 
35 | COc1ccccc1CNC(=O)Nc1nc(=O)n(C(=O)NCc2ccccc2F)cc1F [Compound 53] | 229 to 231 °C | 0 to 25% | 0 to 25% |  | 
